From US20240366598A1, “GLUCOSE-DEPENDENT INSULINOTROPIC POLYPEPTIDE RECEPTOR ANTAGONISTS AND USES THEREOF” (Pfizer Inc., priority 2023, published 2024)
Counter-ions that a name gives are not always drawn.

Molecular target: T1, human Glucose-dependent Insulinotropic Polypeptide Receptor (hGIPR) (Homo sapiens, UniProt P48546)
T1 sequence (P48546 22-466): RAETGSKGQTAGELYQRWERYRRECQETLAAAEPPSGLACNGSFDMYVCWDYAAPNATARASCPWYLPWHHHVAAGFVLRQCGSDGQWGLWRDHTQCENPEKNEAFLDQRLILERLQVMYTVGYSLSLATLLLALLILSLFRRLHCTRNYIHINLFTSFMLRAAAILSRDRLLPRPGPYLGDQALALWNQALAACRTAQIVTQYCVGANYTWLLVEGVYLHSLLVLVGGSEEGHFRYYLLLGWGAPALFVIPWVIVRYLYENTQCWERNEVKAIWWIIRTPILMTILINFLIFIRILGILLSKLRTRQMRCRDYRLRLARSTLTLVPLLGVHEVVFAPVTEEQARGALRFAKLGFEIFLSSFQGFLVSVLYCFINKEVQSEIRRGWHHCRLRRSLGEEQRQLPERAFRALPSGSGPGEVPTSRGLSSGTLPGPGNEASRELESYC
Assay: Functional in vitro GIPR antagonist potency assay (cAMP HTRF, CHO-K1 cells stably expressing hGIPR, hGIP stimulation at about EC80)
Type: cell-based
Details: geometric mean, hGIP at estimated EC80, examples marked ^2: overall geometric mean of multiple forms (including salts) tested
Description: Example AA. Functional In Vitro GIPR Antagonist Potency Assay
The functional in vitro antagonist potency for test compounds was determined by monitoring intracellular cyclic adenosine monophosphate (cAMP) levels in Chinese hamster ovary (CHO)—K1 cells stably expressing the human Glucose-dependent Insulinotropic Polypeptide Receptor (hGIPR). Following agonist activation, hGIPR associates with the G-protein complex causing the Gαs subunit to exchange bound guanosine diphosphate (GDP) for guanosine triphosphate (GTP), followed by dissociation of the Gαs-GTP complex. The activated Gas subunit can couple to downstream effectors to regulate the levels of second messengers or cAMP within the cell. Thereby, determination of intracellular cAMP levels allows for pharmacological characterization. Intracellular cAMP levels are quantitated using a homogenous assay utilizing the Homogeneous Time Resolved Fluorescence (HTRF) technology from Perkin Elmer. […] The two entities compete for binding to a monoclonal anti-cAMP antibody labeled with cryptate. The specific signal is inversely proportional to the concentration of cAMP in the cells.
Test compounds were solubilized to a concentration of 30 mM in 100% dimethyl sulfoxide (DMSO). An 11-point dilution series using 1 in 3.162-fold serial dilutions was created in 100% DMSO with a top concentration of 8 mM. The serially diluted compound was spotted with an Echo Acoustic liquid handler (Beckman Coulter) into a 384-well assay plate (Corning, Cat No. 3824) at 50 nL/well with duplicate points at each concentration, at a 200× final assay concentration (FAC). The final compound concentration range in the assay was 40 μM to […], with a final DMSO concentration of 0.5%.
Frozen assay-ready vials (at 1×10^7 cells/vial) of CHO-K1 cells stably expressing the Gs-coupled human GIPR receptor (Eurofins, DiscoverX, Cat No. 95-0146C2) were thawed, counted, and resuspended in assay buffer consisting of Hank's Balanced Salt Solution (HBSS, Lonza Cat No. 10-527) containing 20 mM (4-(2-hydroxyethyl)-1-piperazineethanesulfonic acid (HEPES, Lonza, Cat No. 17-737E), 0.1% bovine serum albumin (BSA, Sigma, Cat No. A7979), and 200 μM 3-isobutyl-1-methylxanthine (IBMX, Sigma, Cat No. 15879) at a density of 4×10^5 cells/mL. Cells were added to assay plate (5 μL/well of 4×10^5 cells/mL stock for 2,000 cells/well final) containing 50 nL of 200× FAC test compound, and incubated at 37° C. (95% O2: 5% CO2) for 2 hours, with micro-clime lids (Labcyte, Cat No. LLS-0310). Following the 2-hour cell and compound incubation, a stimulation mix comprised of hGIPR agonist human glucose-dependent insulinotropic polypeptide (hGIP, full length, Sigma Cat No. G2269) in assay buffer/0.1% DMSO was added to the assay plate (5 μL/well) at an estimated EC80 FAC (based on previous hGIP agonist curves) and incubated for another 30 minutes with micro-clime lids at 37° C. (95% O2: 5% CO2), after which intracellular cAMP levels were quantified as per Perkin Elmer's protocol (5 μL of d2 and then 5 μL cryptate, incubated for 1 hour at room temperature). Emission spectra of samples were measured on a Pherastar plate reader (BMG Labtech Inc) using a HTRF protocol (excitation, 320 nm; emission, 665 nm/620 nm).
(95% O2: 5% CO2), with a micro-clime lid. Following the 2-hour cell and DMSO incubation, a hGIP concentration response curve at 2× FAC (12-point curve using 1 in 3 serial dilutions, with triplicate points at each concentration, 100 nM final top concentration) in assay buffer/1% DMSO was added (5 μL/well) and incubated for a further 30 minutes with a micro-clime lid at 37° C. (95% O2: 5% CO2), after which intracellular cAMP levels were quantified and samples measured as described previously. Experiments passed quality control if the agonist concentration used for stimulation fell between the on-the-day EC50-EC90. […]

With `CC(C)c1ccc(NC(=O)N2CCC[C@@H]2C(=O)Nc2ccc3cc(C(=O)O)ccc3c2)cc1` (racemic) [Example 41, 6-[(1-{[4-(propan-2-yl)phenyl]carbamoyl}prolyl)amino]naphthalene-2-carboxylic acid] the IC50 was 160 nM.
In the case of `CC(C)c1ccc(NC(=O)N2CCC[C@@H]2C(=O)Nc2ccc(-c3ccc(C(=O)O)cc3)cc2)cc1` (racemic) [Example 44, 4′-[(1-{[4-(propan-2-yl)phenyl]carbamoyl}prolyl)amino][1,1′-biphenyl]-4-carboxylic acid], the IC50 is reported as 6.8 nM.
Molecule `CC(C)c1ccc(NC(=O)N2CC[C@H](C)[C@@H]2C(=O)Nc2ccc(-c3ccc(C(=O)O)cc3)cc2)cc1` (single isomer, unassigned) [Example 34, 4′-{[(3S)-3-Methyl-1-{[4-(propan-2-yl)phenyl]carbamoyl}-D-prolyl]amino}[1,1′-biphenyl]-4-carboxylic acid or 4′-{[(3R)-3-Methyl-1-{[4-(propan-2-yl)phenyl]carbamoyl}-L-prolyl]amino}[1,1′-biphenyl]-4-carboxylic acid] has an IC50 of 10 nM.
`CC(C)c1ccc(NC(=O)N2CC[C@@H](C)[C@@H]2C(=O)Nc2ccc(-c3ccc(C(=O)O)cc3)cc2)cc1` (single isomer, unassigned) [Example 35, 4′-{[(3R)-3-Methyl-1-{[4-(propan-2-yl)phenyl]carbamoyl}-D-prolyl]amino}[1,1′-biphenyl]-4-carboxylic acid or 4′-{[(3S)-3-Methyl-1-{[4-(propan-2-yl)phenyl]carbamoyl}-L-prolyl]amino}[1,1′-biphenyl]-4-carboxylic acid] was tested, and the IC50 was 4.6 nM.
`CC[C@H]1CCN(C(=O)Nc2ccc(C(C)C)cc2)[C@H]1C(=O)Nc1ccc(-c2ccc(C(=O)O)cc2)cc1` (single isomer, unassigned) [Example 165, 4′-{[(3R)-3-ethyl-1-{[4-(propan-2-yl)phenyl]carbamoyl}-L-prolyl]amino}[1,1′-biphenyl]-4-carboxylic acid or 4′-{[(3S)-3-ethyl-1-{[4-(propan-2-yl)phenyl]carbamoyl}-D-prolyl]amino}[1,1′-biphenyl]-4-carboxylic acid] showed an IC50 of 4.6 nM.
`CC[C@@H]1CCN(C(=O)Nc2ccc(C(C)C)cc2)[C@H]1C(=O)Nc1ccc(-c2ccc(C(=O)O)cc2)cc1` (single isomer, unassigned) [Example 166, 4′-{[(3R)-3-ethyl-1-{[4-(propan-2-yl)phenyl]carbamoyl}-D-prolyl]amino}[1,1′-biphenyl]-4-carboxylic acid or 4′-{[(3S)-3-ethyl-1-{[4-(propan-2-yl)phenyl]carbamoyl}-L-prolyl]amino}[1,1′-biphenyl]-4-carboxylic acid] showed an IC50 of 5.7 nM.
In the case of `O=C(O)[C@@H]1CCc2nc(NC(=O)[C@H]3CCCN3C(=O)Nc3ccc(C(F)(F)F)cc3)ccc2C1` (single isomer, unassigned) [Example 217, 2-[(1-{[4-(trifluoromethyl)phenyl]carbamoyl}-D-prolyl)amino]-5,6,7,8-tetrahydroquinoline-6-carboxylic acid, DIAST-1], the IC50 is reported as 140 nM.
In the case of `O=C(O)[C@@H]1CCc2nc(NC(=O)[C@H]3CCCN3C(=O)Nc3ccc(C(F)(F)F)cc3)ccc2C1` (single isomer, unassigned) [Example 218, 2-[(1-{[4-(trifluoromethyl)phenyl]carbamoyl}-D-prolyl)amino]-5,6,7,8-tetrahydroquinoline-6-carboxylic acid, DIAST-2], the IC50 is reported as 33 nM.
Molecule `O=C(O)[C@@H]1CCc2nc(NC(=O)[C@H]3CCCN3C(=O)Nc3ccc(C(F)(F)F)c(F)c3)ccc2C1` (single isomer, unassigned) [Example 220, 2-[(1-{[3-fluoro-4-(trifluoromethyl)phenyl]carbamoyl}-D-prolyl)amino]-5,6,7,8-tetrahydroquinoline-6-carboxylic acid, DIAST-1] has an IC50 of 47 nM.
`O=C(O)[C@@H]1CCc2nc(NC(=O)[C@H]3CCCN3C(=O)Nc3ccc(C(F)(F)F)c(F)c3)ccc2C1` (single isomer, unassigned) [Example 221, 2-[(1-{[3-fluoro-4-(trifluoromethyl)phenyl]carbamoyl}-D-prolyl)amino]-5,6,7,8-tetrahydroquinoline-6-carboxylic acid, DIAST-2] showed an IC50 of 11 nM.
In the case of `Cc1cc(NC(=O)N2CCC[C@@H]2C(=O)Nc2ccc3c(n2)CC[C@@H](C(=O)O)C3)ccc1C(F)(F)F` (single isomer, unassigned) [Example 226, 2-[(1-{[3-methyl-4-(trifluoromethyl)phenyl]carbamoyl}-D-prolyl)amino]-5,6,7,8-tetrahydroquinoline-6-carboxylic acid, DIAST-1], the IC50 is reported as 81 nM.
In the case of `Cc1cc(NC(=O)N2CCC[C@@H]2C(=O)Nc2ccc3c(n2)CC[C@@H](C(=O)O)C3)ccc1C(F)(F)F` (single isomer, unassigned) [Example 227, 2-[(1-{[3-methyl-4-(trifluoromethyl)phenyl]carbamoyl}-D-prolyl)amino]-5,6,7,8-tetrahydroquinoline-6-carboxylic acid, DIAST-2], the IC50 is reported as 53 nM.
Molecule `CC(C)c1ccc(NC(=O)N2CCC[C@@H]2C(=O)Nc2ccc3c(n2)CC[C@@H](C(=O)O)C3)cc1F` (single isomer, unassigned) [Example 228, 2-[(1-{[3-fluoro-4-(propan-2-yl)phenyl]carbamoyl}-D-prolyl)amino]-5,6,7,8-tetrahydroquinoline-6-carboxylic acid, trifluoroacetate salt, DIAST-1] has an IC50 of 36 nM.
For `CC(C)c1ccc(NC(=O)N2CCC[C@@H]2C(=O)Nc2ccc3c(n2)CC[C@@H](C(=O)O)C3)cc1F` (single isomer, unassigned) [Example 229, 2-[(1-{[3-fluoro-4-(propan-2-yl)phenyl]carbamoyl}-D-prolyl)amino]-5,6,7,8-tetrahydroquinoline-6-carboxylic acid, trifluoroacetate salt, DIAST-2], the IC50 was 11 nM.
`CC(C)c1ccc(NC(=O)N2CCC[C@@H]2C(=O)Nc2ccc(-c3ccc(C(=O)O)nc3)cc2)cc1` [Example 1, Ammonium 5-{4-[(1-{[4-(propan-2-yl)phenyl]carbamoyl}-D-prolyl)amino]phenyl}pyridine-2-carboxylate] showed an IC50 of 16 nM.
`CC(C)c1ccc(NC(=O)N2CCC[C@@H]2C(=O)Nc2ccc(-c3ccc(C(=O)O)cn3)cc2)cc1` [Example 2, 6-{4-[(1-{[4-(Propan-2-yl)phenyl]carbamoyl}-D-prolyl)amino]phenyl}pyridine-3-carboxylic acid] showed an IC50 of 74 nM.
`CC(C)c1ccc(NC(=O)N2CCC[C@@H]2C(=O)Nc2ccc(-c3cccc(C(=O)O)c3)cc2)cc1` [Example 3, 4′-[(1-{[4-(Propan-2-yl)phenyl]carbamoyl}-D-prolyl)amino][1,1′-biphenyl]-3-carboxylic acid] gave an IC50 of 17 nM.
`CC(C)c1ccc(NC(=O)N2CCC[C@@H]2C(=O)Nc2ccc(-c3ccc(C(=O)O)cc3)cc2)cc1` [Example 4, 4′-[(1-{[4-(Propan-2-yl)phenyl]carbamoyl}-D-prolyl)amino][1,1′-biphenyl]-4-carboxylic acid] gave an IC50 of 4.1 nM.
